According to paper PMC6274375, “Two New Pentacyclic Triterpene Saponins from the Leaves of Akebia trifoliata” (Molecules, 2016):

Tests used:
α-glucosidase = assay: α-Glucosidase inhibition assay (PNPG substrate); type: biochemical; details: pH 6.8, 37 °C, read-out: α-glucosidase inhibitory activity IC50
Protocol: The a-glucosidase inhibitory activity of 1–7 were determined spectrophotometrically in a 96-well microtiter plate based on p-nitrophenyl-α-D-glucopyranoside (PNPG) as a substrate following the method described in literature with slight modifications. In brief, α-glucosidase (20 μL, 0.8 U/mL) and various concentrations (500, 250, 125, 62.5, 31.25, 15.625 µg/mL) of tested compounds (120 μL) in 67 mM phosphate buffer (pH 6.8) were mixed at room temperature for 10 min. Reactions were initiated by addition of 5.0 mM PNPG (20 μL). The reaction mixture was incubated for 15 min at 37 °C in a final volume of 160 μL. Then, 0.2 M Na2CO3 (80 μL) was added to the incubation solution to stop the reaction. The activities were detected in a 96-well plate, and the absorbance was determined at 405 nm (for p-nitrophenol). The negative blank was set by adding phosphate buffer instead of the sample via the same way as the test. […] The blank was set by adding phosphate buffer instead of the α-glucosidase using the same method. Inhibition rate (%) = [(ODnegative control − ODblank) − (ODtest − ODtest blank)]/(ODnegative blank − ODblank) × 100%. IC50 values of the samples were calculated using the Microsoft Office Excel soft.

[1] = MTT cytotoxicity assay, A549 cells; type: cell-based; details: human, mean ± SD (n = 3)
Protocol: (§1) Compounds 1–7 were testeded for their cytotoxity against A549 (human lung adenocarcinoma), HeLa (human cervical carcinoma) and HepG2 (human liver hepatocellular carcinoma) cell lines. The three tumor cell lines were obtained from Kunming Institute of Zoology, Chinese Academy of Sciences. The cytotoxic activity of tested chemicals were assayed according to the MTT method using 96 well plates. Briefly, the cells were cultured in RPMI-1640 medium, supplemented with 10% fetal bovine serum in a humidified atmosphere with 5% CO2 at 37 °C. 100 μL adherent cells at the density of 5 × 10^4 cell/mL was seeded into each well of 96-well cell culture plates and incubated in 5% CO2 at 37 °C for 24 h to form a monolayer on the flat bottoms. Then, the supernatant per well was removed and subsequently added with 100 μL fresh medium and 100 μL medium containing a test compound. The plate was then incubated in 5% CO2 at 37 °C. After 72 h, 20 μL of 5 mg/mL MTT in DMSO was added into each well and incubated for 4 h. The supernatant per well was carefully removed and 150 μL DMSO was added. The plate was then vortex shaken for 15 min to dissolve blue formazan crystals. The optical density (OD) of each well was measured on a Genois microplate reader (Tecan GENios, Männedorf, Switzerland) at the wavelength of 570 nm. All experiments were performed in triplicate and adriamycin was used as a positive control. In each experiment, each of the tumor cell lines was exposed to the test compound at concentrations 50, 25, 12.5, 6.25, 3.125, 1.5625 µg/mL. The inhibitory rate of cell growth was calculated according to the following formula: Inhibition rate (%) = (ODcontrol − ODtreated)/ODcontrol × 100%. IC50 values were calculated by SPSS 16.0 statistic software. The values were based on three individual experiments and expressed as means ± standard deviation (SD).

[2] = MTT cytotoxicity assay, HepG2 cells; type: cell-based; details: human, mean ± SD (n = 3)
Protocol: as §1

[3] = MTT cytotoxicity assay, HeLa cells; type: cell-based; details: human, mean ± SD (n = 3)
Protocol: as §1

[4] = tested on: human tumor A549, HeLa and HepG2 cell lines; assay: MTT cytotoxicity, summary statements over the three cell lines; type: cell-based; details: A549, HeLa and HepG2
Protocol: as §1

[5] = as above; type: cell-based, human; details: human, A549, HeLa and HepG2 cells (range over the three cell lines)
Protocol: as §1

[6] = range over A549, HeLa and HepG2 and over both compounds, read-out: Cytotoxicity IC50 values, range over all three cancer cell lines
[7] = range over the three cell lines and over both compounds, as given in abstract, read-out: Cytotoxicity IC50 values, range over A549, HeLa and HepG2

IC50 (α-glucosidase) [µM] | Structure (SMILES) | IC50 at 72 h [1] [µM] | IC50 at 72 h [2] [µM] | IC50 at 72 h [3] [µM] | In vitro cytotoxicity, result in words [4] | IC50 at 72 h [5, 6] [µM] | IC50 at 72 h [5, 7] [µM]
40 | CC1(C)CC[C@]2(C(=O)O)CC[C@]3(C)C(=CC[C@@H]4[C@@]5(C)C[C@@H](O)[C@H](O)[C@@](C)(CO)[C@@H]5CC[C@]43C)[C@@H]2C1 [Compound 7, arjunolic acid] | 33.6 ± 3.13 | 38.1 ± 1.63 | 24.4 ± 1.49 | moderate in vitro cytotoxicity | 22.7 to 38.1 | 23 to 38
47 | CC1(C)CC[C@]2(C(=O)O)CC[C@]3(C)C(=CCC4[C@@]5(C)C[C@@H](O)[C@H](O)[C@@](C)(C=O)C5CC[C@]43C)C2C1 (stereo partly drawn) [Compound 5, 2α,3β-dihydroxy-23-oxo-olean-12-en-28-oic acid] | 30.2 ± 4.55 | 38 ± 7.57 | 22.7 ± 1.96 | moderate in vitro cytotoxicity | 22.7 to 38.1 | 23 to 38
220 | C=C1CC[C@]2(C(=O)O)CC[C@]3(C)C(=CCC4[C@@]5(C)C[C@@H](O)[C@H](O)[C@@](C)(C=O)C5CC[C@]43C)C2C1 (stereo partly drawn) [Compound 6, 2α,3β-dihydroxy-23-oxo-30-norolean-12,20 (29)-dien-28-oic acid] | > 100 | > 100 | > 100 |  |  | 
